Counter-ions that a name gives are not always drawn. Bounds are passed on as bounds.

Format in all cases: cell-based
The test system of assay [1] is A. baumannii clinical isolate (strain 7). The experiment in a line: MIC by broth microdilution (alone and in combination with meropenam), strain 7. To be noted: for MIC: Acinetobacter baumannii, compound alone, read-out: MIC. The procedure, abridged: (§1)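 Visual MIC endpoint after 18-24 h at 37° C, inoculum about 5x10^5 CFU/mL in cation-adjusted MHB II. Compounds and meropenem tested singly and together, the partner compound constant at 4 µg/mL against a meropenem series of 0.125-64 mg/L.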
In general terms: In broth dilution the organism is exposed to a series of concentrations in liquid medium.

The subject of assay [2] is K. pneumoniae 700603 (strain 4). The experiment in a line: MIC by broth microdilution (alone and in combination with meropenam), strain 4. The settings on record: for MIC: Klebsiella pneumoniae, compound alone, read-out: MIC. The procedure, abridged: as §1
For assay [3], the system named is E. cloacae 700323 (strain 6). The experiment in a line: MIC by broth microdilution (alone and in combination with meropenam), strain 6. The settings on record: for MIC: Enterobacter cloacae, compound alone, read-out: MIC. An outline of the steps: as §1
Assay [4] deals with E. cloacae clinical isolate (strain 5). The experiment in a line: MIC by broth microdilution (alone and in combination with meropenam), strain 5. The settings on record: for MIC: Enterobacter cloacae, compound alone, read-out: MIC. The procedure, abridged:
as §1

In a further assay the test system is E. coli 8739 (strain 2). The experiment in a line: MIC by broth microdilution (alone and in combination with meropenam), strain 2. The settings on record: for MIC: Escherichia coli, compound alone, read-out: MIC. An outline of the steps: as §1
The subject of assay [5] is A. baumannii 19606 (strain 8). The experiment in a line: MIC by broth microdilution (alone and in combination with meropenam), strain 8. To be noted: for MIC: Acinetobacter baumannii, compound alone, read-out: MIC. The procedure, abridged:
as §1

Assay [6] has as its system P. aeruginosa 9027 (strain 10). Kind of assay: MIC by broth microdilution (alone and in combination with meropenam), strain 10. The settings on record: for MIC: Pseudomonas aeruginosa, compound alone, read-out: MIC. The procedure, abridged:
as §1

The subject of assay [7] is P. aeruginosa clinical isolate (strain 9). The experiment in a line: MIC by broth microdilution (alone and in combination with meropenam), strain 9. To be noted: for MIC: Pseudomonas aeruginosa, compound alone, read-out: MIC. An outline of the steps: as §1
Assay [8] deals with E. coli clinical isolate (strain 1). Kind of assay: MIC by broth microdilution (alone and in combination with meropenam), strain 1. To be noted: for MIC: Escherichia coli, compound alone, read-out: MIC. The procedure, abridged: as §1
Assay [9] relates to K. pneumoniae clinical isolate (strain 3). Kind of assay: MIC by broth microdilution (alone and in combination with meropenam), strain 3. The settings on record: for MIC: Klebsiella pneumoniae, compound alone, read-out: MIC. An outline of the steps:
as §1

`N=C(NC(=O)c1ccc(C(F)(F)F)cn1)[C@@H]1CC[C@@H]2CN1C(=O)N2OS(=O)(=O)[O-].[Na+]` [Ex.50, Sodium (2S,5R)-7-oxo-2-(N-(5-(trifluoromethyl)picolinoyl)carbamimidoyl)-1,6-diazabicyclo[3.2.1]octan-6-yl Sulfate]: the MIC (in assay [1]; in assay [2]; in assay [3]; in assay [4]; in the assay with E. coli 8739 (strain 2); in [5]) was greater than 64 mg/L throughout. Besides, the MIC in assay [6], in [7], in assay [8] and in [9] was greater than 64 mg/L in each case.
As to `N=C(N)NCCC(=O)NC(=N)[C@@H]1CC[C@@H]2CN1C(=O)N2OS(=O)(=O)O` [Ex.51, (2S,5R)-2-(N-(3-guanidinopropanoyl)carbamimidoyl)-7-oxo-1,6-diazabicyclo[3.2.1]octan-6-yl Hydrogen Sulfate], the MIC (in assay [1]; in assay [2]; in [3]; in assay [4]; with E. coli 8739 (strain 2); in [5]) was greater than 64 mg/L each time. Moreover, the MIC in [6], in [7], in assay [8] and in assay [9] was greater than 64 mg/L throughout.
For the compound `N=C(NC(=O)C1CCCN=N1)[C@@H]1CC[C@@H]2CN1C(=O)N2OS(=O)(=O)[O-].[Na+]` (stereo partly drawn) [Ex.52, Sodium (2S,5R)-7-oxo-2-(N-(3,4,5,6-tetrahydropyridazine-3-carbonyl)carbamimidoyl)-1,6-diazabicyclo[3.2.1]octan-6-yl Sulfate], the MIC (in [1]; in assay [2]; in assay [3]; in assay [4]; with E. coli 8739 (strain 2); in assay [5]) was greater than 64 mg/L in each case. Also, the MIC in assay [6], in assay [7], in assay [8] and in assay [9] was greater than 64 mg/L throughout.
On to `C[C@@H](O)[C@H]1C(=O)N2C(C(=O)O)=C(S[C@@H]3CN[C@H](C(=O)N(C)C)C3)[C@H](C)[C@H]12` [MER, meropenam, reference compound], for which the “MIC, MER Alone” value turned out to be 2.0 mg/L in assay [1] (meropenam alone); 1.0 mg/L in [2] (meropenam alone); 2.0 mg/L in assay [3] (meropenam alone); 2.0 mg/L in assay [4] (meropenam alone); 2.0 mg/L in the assay on E. coli 8739 (strain 2) (meropenam alone); 1.0 mg/L in assay [5] (meropenam alone). Further, the “MIC, MER Alone” value in assay [6] (meropenam alone), in assay [7] (meropenam alone), in assay [8] (meropenam alone) and in assay [9] (meropenam alone) was 2.0 mg/L in each case.

What is called MIC is the smallest concentration in the dilution series that meets the test's criterion for growth inhibition.

For the origin of these results see patent publication US20230365561A1, “BETA-LACTAMASE INHIBITORS AND THEIR PREPARATION” (NINGXIA ACADEMY OF AGRICUL TURE AND FORESTRY SCIENCES, priority 2020, published 2023).
